# Results taken from ChEMBL document CHEMBL1921763, “Synthesis and SAR of 2-phenoxypyridines as novel c-Jun N-terminal kinase inhibitors” (Bioorg Med Chem Lett, 2011).
# Experiments:
# [1] = target: Mitogen-activated protein kinase 8 (Homo sapiens, UniProt P45983); experiment: Inhibition of JNK1 using biotinylated-ATF2 as substrate by HTRF assay
# [2] = target: Mitogen-activated protein kinase 10 (Homo sapiens, UniProt P53779); experiment: Inhibition of JNK3 using biotinylated-ATF2 as substrate by HTRF assay
# Chain of Mitogen-activated protein kinase 10 (P53779 whole entry): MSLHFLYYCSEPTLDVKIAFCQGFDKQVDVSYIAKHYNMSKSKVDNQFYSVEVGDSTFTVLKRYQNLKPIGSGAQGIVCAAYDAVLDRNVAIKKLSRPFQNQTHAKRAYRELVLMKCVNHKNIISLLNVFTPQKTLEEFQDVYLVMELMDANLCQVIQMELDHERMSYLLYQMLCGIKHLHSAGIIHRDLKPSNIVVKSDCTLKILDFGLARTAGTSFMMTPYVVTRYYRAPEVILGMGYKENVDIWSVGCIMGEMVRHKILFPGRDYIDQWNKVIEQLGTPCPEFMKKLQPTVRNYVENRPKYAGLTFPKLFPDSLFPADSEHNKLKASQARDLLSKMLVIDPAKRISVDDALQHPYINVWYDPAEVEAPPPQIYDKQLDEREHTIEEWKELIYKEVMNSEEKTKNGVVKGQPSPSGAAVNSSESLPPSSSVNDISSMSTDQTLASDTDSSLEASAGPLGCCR
# [3] = Half life in Sprague-Dawley rat at 1 mg/kg, iv and 2 mg/kg, po; type: ADME, organism-based; conditions: in vivo
# [4] = Plasma clearance in Sprague-Dawley rat at 1 mg/kg, iv and 2 mg/kg, po; type: ADME, organism-based
# [5] = AUC in Sprague-Dawley rat at 1 mg/kg, iv and 2 mg/kg, po; type: ADME, organism-based; conditions: plasma
# [6] = Oral bioavailability in Sprague-Dawley rat at 2 mg/kg; type: ADME, organism-based; conditions: in vivo
# [7] = Plasma concentration in C57B16 mouse at 10 mg/kg, ip after 2 hrs; type: ADME, organism-based; set-up: dose 10 mg/kg, route intraperitoneal
# [8] = Drug level in C57B16 mouse brain at 10 mg/kg, ip after 2 hrs; type: ADME, organism-based; set-up: dose 10 mg/kg, route intraperitoneal; conditions: read-out: Drug uptake
# Chain of Mitogen-activated protein kinase 8 (P45983 whole entry): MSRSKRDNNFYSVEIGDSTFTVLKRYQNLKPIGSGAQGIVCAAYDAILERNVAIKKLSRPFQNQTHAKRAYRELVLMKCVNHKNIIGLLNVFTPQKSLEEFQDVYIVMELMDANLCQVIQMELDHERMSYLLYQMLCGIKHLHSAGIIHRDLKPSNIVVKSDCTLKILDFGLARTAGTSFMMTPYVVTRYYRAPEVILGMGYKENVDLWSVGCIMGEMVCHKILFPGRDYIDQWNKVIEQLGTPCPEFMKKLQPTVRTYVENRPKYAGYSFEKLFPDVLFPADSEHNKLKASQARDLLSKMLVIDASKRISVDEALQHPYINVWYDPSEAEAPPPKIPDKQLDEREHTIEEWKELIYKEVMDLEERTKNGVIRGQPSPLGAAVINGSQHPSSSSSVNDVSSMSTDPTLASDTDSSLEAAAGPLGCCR
Compound,IC50 [1] [nM],IC50 [2] [nM],further results
COc1ccc(Oc2cc(N(C)c3ccccc3C(N)=O)c(Cl)cn2)cc1,> 20000,–,–
COc1ccc(Oc2cc(Nc3c(Cl)cccc3C(N)=O)c(C(F)(F)F)cn2)cc1,–,160,–
NC(=O)c1ccccc1Nc1ccnc(Oc2ccccc2)c1,330,520,–
NC(=O)c1ccccc1Nc1cc(Oc2ccc(Cl)c(Cl)c2)ncc1C(F)(F)F,680,100,–
NC(=O)c1ccccc1Nc1cc(Oc2ccc(Br)cc2)ncc1C(F)(F)F,480,380,–
NC(=O)c1ccccc1Nc1cc(Oc2cccc(Cl)c2)ncc1C(F)(F)F,–,200,–
CCOc1ccc(Oc2cc(Nc3ccccc3C(N)=O)c(C(F)(F)F)cn2)cc1,35,110,–
COc1ccc(Oc2cc(Nc3ccccc3C(N)=O)c(C(F)(F)F)cn2)c(Cl)c1,740,100,–
COc1ccc(Oc2cc(Nc3cccc(Cl)c3C(N)=O)c(C(F)(F)F)cn2)cc1,–,2200,–
NC(=O)c1ccccc1Nc1cc(Oc2cccc3ccccc23)ncc1C(F)(F)F,650,990,–
COc1ccc(Oc2cc(Nc3ccccc3-c3nnc[nH]3)c(Cl)cn2)cc1,120,140,–
CNC(=O)c1ccccc1Nc1cc(Oc2ccc(OC)cc2)ncc1Cl,930,170,–
NC(=O)c1ccccc1Nc1cc(Oc2ccc3ccccc3c2)ncc1C(F)(F)F,–,320,–
CCCOc1ccc(Oc2cc(Nc3ccccc3C(N)=O)c(C(F)(F)F)cn2)cc1,100,140,–
COc1ccccc1Oc1cc(Nc2ccccc2C(N)=O)c(C(F)(F)F)cn1,3200,3500,–
COc1ccc(Oc2cc(Nc3cccc(OC)c3C(N)=O)c(C(F)(F)F)cn2)cc1,–,2200,–
NC(=O)c1ccccc1Nc1cc(Oc2ccc(F)cc2)ncc1C(F)(F)F,100,200,–

# Continued by falling IC50 [2], values first:
IC50 [1] [nM],IC50 [2] [nM],Compound,further results
–,80,NC(=O)c1ccccc1Nc1cc(Oc2ccc(-n3cncn3)cc2)ncc1C(F)(F)F,half-life [3]: 1 h; clearance [4]: 6 mL/min/kg; AUC [5]: 9.1 µM·h; bioavailability [6]: 73%; concentration at 2 h [7]: 15.7 µM; concentration at 2 h [8]: 2.5 µM
–,78,COc1ccc(Oc2cc(Nc3cc(Cl)ccc3C(N)=O)c(C(F)(F)F)cn2)cc1,–
53,72,NC(=O)c1ccccc1Nc1cc(Oc2ccc(-c3cccnc3)cc2)ncc1C(F)(F)F,–
310,70,NC(=O)c1ccccc1Nc1ccnc(Oc2ccc(N3CCNCC3)cc2)c1,half-life [3]: 1.5 h; clearance [4]: 38 mL/min/kg; AUC [5]: 0.3 µM·h; bioavailability [6]: 14%
38,70,COc1cccc(Oc2cc(Nc3ccccc3C(N)=O)c(C(F)(F)F)cn2)c1,–
–,60,COc1ccc(Oc2cc(Nc3c(F)cccc3C(N)=O)c(C(F)(F)F)cn2)cc1,–
–,49,COc1ccc(Oc2cc(Nc3cc(F)ccc3C(N)=O)c(C(F)(F)F)cn2)cc1,–
26,48,COc1ccc(Oc2cc(Nc3ccccc3C(N)=O)c(F)cn2)cc1,–
44,48,NC(=O)c1ccccc1Nc1cc(Oc2ccc3c(c2)OCO3)ncc1C(F)(F)F,–
–,45,COc1ccc(Oc2cc(Nc3ccc(F)cc3C(N)=O)c(C(F)(F)F)cn2)cc1,–
27,37,COc1ccc(Oc2cc(Nc3ccccc3C(N)=O)c(C(F)(F)F)cn2)cc1,half-life [3]: 1 h; clearance [4]: 3 mL/min/kg; AUC [5]: 20.1 µM·h; bioavailability [6]: 79%; concentration at 2 h [7]: 10 µM; concentration at 2 h [8]: 5.2 µM
35,35,NC(=O)c1ccccc1Nc1cc(Oc2ccc(OC(F)(F)F)cc2)ncc1C(F)(F)F,–
–,34,NC(=O)c1ccccc1Nc1cc(Oc2ccc(N3CCNCC3)cc2)ncc1C(F)(F)F,–
–,30,COc1ccc(Oc2cc(Nc3ccc(Cl)cc3C(N)=O)c(C(F)(F)F)cn2)cc1,–
22,27,CC(C)(C)Oc1ccc(Oc2cc(Nc3ccccc3C(N)=O)c(C(F)(F)F)cn2)cc1,–
–,17,COc1ccc(Oc2cc(Nc3cc(OC)ccc3C(N)=O)c(C(F)(F)F)cn2)cc1,–
8,15,COc1ccc(Oc2cc(Nc3ccccc3C(N)=O)c(Cl)cn2)cc1,half-life [3]: 1 h; clearance [4]: 13 mL/min/kg; AUC [5]: 6.3 µM·h; bioavailability [6]: 90%; concentration at 2 h [7]: 2.4 µM; concentration at 2 h [8]: 1.8 µM
4,7,COc1ccc(Oc2ncc(Cl)c(Nc3ccccc3C(N)=O)n2)cc1,half-life [3]: 0.5 h; clearance [4]: 22 mL/min/kg; AUC [5]: 1 µM·h; bioavailability [6]: 25%
